Experimental data from patent publication US6335451B1, “Five-membered heterocycles having biphenylsulfonyl substitution, with sulfonylcyanamide side chain, compositions containing them, and methods of using them” (Hoechst Aktiengesellschaft, priority 1997, dated 2002).

Columns and labels:
[1] = test system: Na+-dependent Cl−/HCO3− exchanger (NCBE); assay: Inhibition of the Na+-dependent Cl−/HCO3− exchanger (NCBE) in human endothelial cells (pHi recovery, BCECF fluorescence, FLIPR); format: cell-based; settings: inhibitor concentration of 10 μM; human endothelial cells (ECV-304); relative to 100% and 0% pHi recovery controls, 50 μM HOE 642 present
Procedure: Inhibition of the Na^+-dependent Cl^−/HCO3^− exchanger (NCBE) in human endothelial cells
Human endothelial cells (ECV-304) were detached from culture bottles with the aid of trypsin/EDTA buffer (0.05/0.02% in phosphate buffer) and, after centrifugation (100 g, 5 min), taken up in a buffered salt solution (mmol/l: 115 NaCl, 20 NH4Cl, 5 KCl, 1 CaCl2, 1 MgSO4, 20 N-(2-hydroxyethyl)piperazine-N′-2-ethanesulfonic acid (HEPES), 5 glucose and 1 g/l of bovine serum albumin; pH 7.4). This cell suspension was incubated at 37° C. for 20 min with 5 μM BCECF-acetoxymethyl ester. The cells were then washed and resuspended in a sodium- and bicarbonate-free buffer solution (mmol/l: 5 HEPES, 133.8 choline chloride, 4.7 KCl, 1.25 MgCl2, 0.97 K2HPO4, 0.23 KH2PO4, 5 glucose; pH 7.4).
For subsequent fluorescence measurement in an FLIPR (Fluorescent Imaging Plate Reader) 100 μl of this cell suspension having 20,000 cells in each case were pipetted per well into a 96-well microtiter plate and this microtiter plate was centrifuged (100 g, 5 min).
In the FLIPR, 100 μl of buffer solution in each case were then removed from a further pretreated microtiter plate and pipetted into each of the 96 wells of the measurement plate. A bicarbonate- and sodium-containing buffer solution (mmol/l: 5 HEPES, 93.8 NaCl, 40 NaHCO3, 4.7 KCl, 1.25 CaCl2, 1.25 MgCl2, 0.97 Na2HPO4, 0.23 NaH2PO4, 5 glucose; pH 7.4) which contained 50 μM HOE 642 was used for a 100% control, i.e. a recovery of the intracellular pH (pHi) via the NCBE. For a 0% control, i.e. no pHi recovery at all, the bicarbonate-free, sodium-containing buffer solution (mmol/l: 5 HEPES, 133.8 NaCl, 4.7 KCl, 1.25 CaCl2, 1.25 MgCl2, 0.97 Na2HPO4, 0.23 NaH2PO4, 5 glucose; pH 7.4) was employed, to which 50 μM HOE 642 were likewise added. The compounds according to the invention were added to the sodium- and bicarbonate-containing solution in various concentrations.
After addition of the buffer solutions to the dye-loaded, acidified cells in the measurement plate, the rise in the fluorescence intensity which corresponded to a rise in the pHi in each well of the microtiter plate was determined. The kinetics were in this case recorded at 35° C. for a period of 2 minutes.
The increase in the fluorescence intensities for different concentrations of the compounds according to the invention was related to the two controls and from this inhibitory action of the substances was determined.
Residual Activity of the NCBE at an Inhibitor Concentration of 10 μM

SMILES: CCCCc1nc(SC)c(C(=O)OCC)n1Cc1ccc(-c2ccccc2S(=O)(=O)NC#N)cc1 [Example 1, Ethyl 2-butyl-5-methylsulfanyl-3-(2′-cyanoaminosulfonyl-biphenyl-4-ylmethyl)-3H-imidazole-4-carboxylate]
- Residual activity in % (residual activity of the NCBE) [1]: 17.7%
- melting point: 111 °C (dec.)

SMILES: CCCCc1nc(SC)c(C(=O)OCC)n1Cc1ccc(-c2cccc(S(=O)(=O)NC#N)c2)cc1 [Example 2, Ethyl 2-butyl-5-methylsulfanyl-3-(3′-cyanoaminosulfonylbiphenyl-4-ylmethyl)-3H-imidazole-4-carboxylate]
- Residual activity in % (residual activity of the NCBE) [1]: 39.6%

SMILES: CCCCc1nc(SC)c(C(=O)OCC)n1Cc1ccc(-c2ccc(S(=O)(=O)NC#N)cc2)cc1 [Example 3, Ethyl 2-butyl-5-methylsulfanyl-3-(4′-cyanoaminosulfonylbiphenyl-4-ylmethyl)-3H-imidazole-4-carboxylate]
- Residual activity in % (residual activity of the NCBE) [1]: 74.1%
- melting point: 244 °C (dec.)

SMILES: CCCCc1nc(SC)c(C(=O)OCC)n1Cc1cccc(-c2ccccc2S(=O)(=O)NC#N)c1 [Example 4, Ethyl 2-butyl-5-methylsulfanyl-3-(2′-cyanoaminosulfonyl-biphenyl-3-ylmethyl)-3H-imidazole-4-carboxylate]
- Residual activity in % (residual activity of the NCBE) [1]: 39.7%
- melting point: 118 °C (dec.)

SMILES: CCCCc1nc(SC)c(C(=O)OCC)n1Cc1cccc(-c2cccc(S(=O)(=O)NC#N)c2)c1 [Example 5, Ethyl 2-butyl-5-methylsulfanyl-3-(3′-cyanoaminosulfonyl-biphenyl-3-ylmethyl)-3H-imidazole-4-carboxylate]
- Residual activity in % (residual activity of the NCBE) [1]: 43.2%
- melting point: 112 °C (dec.)

SMILES: CCCCc1nc(SC)c(C(=O)OCC)n1Cc1cccc(-c2ccc(S(=O)(=O)NC#N)cc2)c1 [Example 6, Ethyl 2-butyl-5-methylsulfanyl-3-(4′-cyanoaminosulfonyl-biphenyl-3-ylmethyl)-3H-imidazole-4-carboxylate]
- Residual activity in % (residual activity of the NCBE) [1]: 58.6%
- melting point: 120 °C (dec.)

SMILES: CCCCc1nc(SC)c(C(=O)OCC)n1Cc1ccccc1-c1ccccc1S(=O)(=O)NC#N [Example 7, Ethyl 2-butyl-5-methylsulfanyl-3-(2′-cyanoaminosulfonyl-biphenyl-2-ylmethyl)-3H-imidazole-4-carboxylate]
- Residual activity in % (residual activity of the NCBE) [1]: 72.1%
- melting point: 105 °C (dec.)

SMILES: CCCCc1nc(SC)c(C(=O)OCC)n1Cc1ccccc1-c1cccc(S(=O)(=O)NC#N)c1 [Example 8, Ethyl 2-butyl-5-methylsulfanyl-3-(3′-cyanoaminosulfonyl-biphenyl-2-ylmethyl)-3H-imidazole-4-carboxylate]
- Residual activity in % (residual activity of the NCBE) [1]: 60.8%
- melting point: 108 °C (dec.)

SMILES: CCCCc1nc(SC)c(C(=O)OCC)n1Cc1ccccc1-c1ccc(S(=O)(=O)NC#N)cc1 [Example 9, Ethyl 2-butyl-5-methylsulfanyl-3-(4′-cyanoaminosulfonyl-biphenyl-2-ylmethyl)-3H-imidazole-4-carboxylate]
- Residual activity in % (residual activity of the NCBE) [1]: 31.6%
- melting point: 116 °C (dec.)

SMILES: CCOC(=O)c1c(SC)nc(C2CC2)n1Cc1ccc(-c2ccccc2S(=O)(=O)NC#N)cc1 [Example 10, Ethyl 2-cyclopropyl-5-methylsulfanyl-3-(2′-cyanoaminosulfonylbiphenyl-4-ylmethyl)-3H-imidazole-4-carboxylate]
- Residual activity in % (residual activity of the NCBE) [1]: 21.6%
- melting point: > 260 °C

SMILES: N#CNS(=O)(=O)c1ccccc1-c1ccc(Cn2c(-c3ccccc3)nc(Cl)c2C=O)cc1 [Example 11, 4′-(4-Chloro-5-formyl-2-phenylimidazol-1-ylmethyl)biphenyl-2-sulfonylcyanamide]
- Residual activity in % (residual activity of the NCBE) [1]: 15.0%

SMILES: COc1nc(-c2ccccc2)n(Cc2ccc(-c3ccccc3S(=O)(=O)NC#N)cc2)c1C=O [Example 12, 4′-(4-Methoxy-5-formyl-2-phenylimidazol-1-ylmethyl)biphenyl-2-sulfonylcyanamide]
- Residual activity in % (residual activity of the NCBE) [1]: 20.8%

SMILES: CCCCc1ncc(C(=O)OCC)n1Cc1ccc(-c2ccccc2S(=O)(=O)NC#N)cc1 [Example 13, Ethyl 2-butyl-3-(2′-cyanoaminosulfonylbiphenyl-4-ylmethyl)-3H-imidazole-4-carboxylate]
- Residual activity in % (residual activity of the NCBE) [1]: 89.5%
- melting point: 121 °C (dec.)

SMILES: CCCCc1nc(SC)c(C(=O)OCC)n1Cc1ccc(-c2ccc(S(=O)(=O)NC#N)cc2C(F)(F)F)cc1 [Example 23, Ethyl 2-butyl-5-methylsulfanyl-3-(4′-cyanoaminosulfonyl-2′-trifluoromethylbiphenyl-4-ylmethyl)-3H-imidazole-4-carboxylate]
- Residual activity in % (residual activity of the NCBE) [1]: 31.6%

SMILES: CCCCc1nc(SC)cn1Cc1ccc(-c2ccccc2S(=O)(=O)NC#N)cc1 [Example 27, 4′-(2-Butyl-4-methylsulfanylimidazol-1-ylmethyl)biphenyl-2-sulfonylcyanamide]
- Residual activity in % (residual activity of the NCBE) [1]: 50.0%

SMILES: N#CNS(=O)(=O)c1ccccc1-c1ccc(Cn2cc(Cl)nc2-c2ccccc2)cc1 [Example 28, 4′-(4-Chloro-2-phenylimidazol-1-ylmethyl)biphenyl-2-sulfonylcyanamide]
- Residual activity in % (residual activity of the NCBE) [1]: 30.5%

SMILES: CC(=O)c1c(Cl)nc(-c2ccccc2)n1Cc1ccc(-c2ccccc2S(=O)(=O)NC#N)cc1 [Example 29, 4′-(5-Acetyl-4-chloro-2-phenylimidazol-1-ylmethyl)biphenyl-2-sulfonylcyanamide]
- Residual activity in % (residual activity of the NCBE) [1]: 39.6%

SMILES: COc1nc(-c2ccccc2)n(Cc2ccc(-c3ccccc3S(=O)(=O)NC#N)cc2)c1C(C)=O [Example 30, 4′-(5-Acetyl-4-methoxy-2-phenylimidazol-1-ylmethyl)biphenyl-2-sulfonylcyanamide]
- Residual activity in % (residual activity of the NCBE) [1]: 48.8%

SMILES: N#CNS(=O)(=O)c1ccccc1-c1ccc(Cn2c(-c3ccccc3)nc(-c3ccccc3)c2-c2ccccc2)cc1 [Example 31, 4′-(2,4,5-Triphenylimidazol-1-ylmethyl)biphenyl-2-sulfonylcyanamide]
- Residual activity in % (residual activity of the NCBE) [1]: 36.5%

SMILES: N#CNS(=O)(=O)c1ccccc1-c1ccc(Cn2c(-c3ccccc3)nc(Cl)c2C=O)c(Cl)c1 [Example 32, 3′-Chloro-4′-(4-chloro-5-formyl-2-phenylimidazol-1-ylmethyl)biphenyl-2-sulfonylcyanamide]
- Residual activity in % (residual activity of the NCBE) [1]: 7.8%

SMILES: N#CNS(=O)(=O)c1ccccc1-c1ccc(Cn2c(-c3ccccc3)nc(Cl)c2C=O)c(F)c1 [Example 33, 3′-Fluoro-4′-(4-chloro-5-formyl-2-phenyl-imidazole-1-ylmethyl)biphenyl-2-sulfonylcyanamide]
- Residual activity in % (residual activity of the NCBE) [1]: 7.6%

SMILES: COc1nc(-c2ccccc2)n(Cc2ccc(-c3ccccc3S(=O)(=O)NC#N)cc2Cl)c1C=O [Example 34, 3′-Chloro-4′-(4-methoxy-5-formyl-2-phenyl-imidazole-1-ylmethyl)biphenyl-2-sulfonylcyanamide]
- Residual activity in % (residual activity of the NCBE) [1]: 5.5%

SMILES: N#CNS(=O)(=O)c1ccccc1-c1ccc(Cn2c(-c3ccccc3)nc(Oc3ccccc3)c2C=O)c(Cl)c1 [Example 35, 3′-Chloro-4′-(4-phenoxy-5-formyl-2-phenyl-imidazole-1-ylmethyl)biphenyl-2-sulfonylcyanamide]
- Residual activity in % (residual activity of the NCBE) [1]: 3.2%
